Experiments:
[1] = Hygroscopicity experiment (DVS); format: physicochemical; details: 25° C.
Source text: 7.1 Hygroscopicity experiment of crystal forms of different salts of compound 2-(2-cyano-5-oxo-8-(trifluoromethyl)pyrazolo[1,5-a]pyrido[3,2-e]pyrimidin-4(5H)-yl)-N-(5-fluoropyridin-2-yl)acetamide
7.1.1 Experimental objective: To investigate the hygroscopicity of crystal forms of different salts of compound 2-(2-cyano-5-oxo-8-(trifluoromethyl)pyrazolo[1,5-a]pyrido[3,2-e]pyrimidin-4(5H)-yl)-N-(5-fluoropyridin-2-yl)acetamide at different relative humidity, so as to provide a basis for storage.
7.1.2 Experimental protocol: Crystal forms of different salts of the compound were placed in saturated water vapor with different relative humidity to achieve dynamic equilibrium between the compound and water vapor, and the percentage of hygroscopic weight gain of the compound after equilibrium was calculated.

[2] = Pharmacokinetic assay of the salt forms in rats (10 mg/kg); format: in vivo; details: SD rats
Protocol: 2.3 Pharmacokinetic assay of the methanesulfonate in rats
2.3.1. Study objective: SD rats were used as test animals. The pharmacokinetic behavior of various salt forms of 2-(2-cyano-5-oxo-8-(trifluoromethyl)pyrazolo[1,5-a]pyrido[3,2-e]pyrimidin-4(5H)-yl)-N-(5-fluoropyridin-2-yl)acetamide was studied in rat body (plasma) by orally administration at a dose of 10 mg/kg.
2.3.2.4 Administration: After an overnight fast, male SD rats (3 rats per group) were administered p.o. with the test compound at a dose of 10 mg/kg and a volume of 10 mL/kg.
2.3.2.5 Sample collection: 0.2 mL of blood was taken from the jugular vein of the rat before administration and at 0, 0.5, 1, 2, 4, 6, 8 and 24 hours after administration. The samples were stored in EDTA-K2 tubes, and centrifuged for 6 minutes at 4° C., 6000 rpm to separate the plasma. The plasma samples were stored at −80° C.
1) 160 μL of acetonitrile was added to 40 μL of the plasma sample for precipitation, and then the mixture was centrifuged at 3500×g for 5 to 20 minutes.
2) After the above process, 100 μL of the supernatant was taken to analyze the concentration of the test compound by LC/MS/MS.
2.3.2.7 Liquid chromatography analysis • Liquid chromatography condition: Shimadzu LC-20AD pump • Mass spectrometry condition: AB Sciex API 4000 mass spectrometer • Chromatographic column: phenomenex Gemiu 5 um C18 50×4.6 mm • Mobile phase: Eluent A was 0.1% formic acid in water, and Eluent B was acetonitrile • Flow rate: 0.8 mL/min • Elution time: 0-4.0 minutes, the eluent is as follows:
The main parameters of pharmacokinetics were calculated by WinNonlin 8.2.

[3] = Cycle 1, target relative humidity 40.0%
[4] = Cycle 1, target relative humidity 50.0%
[5] = Cycle 1, target relative humidity 60.0%
[6] = Cycle 1, target relative humidity 70.0%
[7] = Cycle 1, target relative humidity 80.0%
[8] = Cycle 1, target relative humidity 90.0%
[9] = Cycle 1, target relative humidity 95.0%
[10] = Cycle 2, target relative humidity 0.0%
[11] = Cycle 2, target relative humidity 10.0%
[12] = Cycle 2, target relative humidity 20.0%
[13] = Cycle 2, target relative humidity 30.0%
[14] = Cycle 2, target relative humidity 40.0%

For `Br.N#Cc1cc2n(CC(=O)Nc3ccc(F)cn3)c(=O)c3ccc(C(F)(F)F)nc3n2n1` [Hydrobromide (crystal form B), 2-(2-cyano-5-oxo-8-(trifluoromethyl)pyrazolo[1,5-a]pyrido[3,2-e]pyrimidin-4(5H)-yl)-N-(5-fluoropyridin-2-yl)acetamide hydrobromide], the “% percentage of mass change, Desorption” value [1, 3] was 4.247%, the “% percentage of mass change, Sorption” value [1, 3] was 4.140% and the “% percentage of mass change, Desorption” value [1, 4] was 4.359%. The “% percentage of mass change, Sorption” value [1, 4] was 4.233%, the “% percentage of mass change, Desorption” value [1, 5] was 4.448% and the “% percentage of mass change, Sorption” value [1, 5] was 4.321%. The “% percentage of mass change, Desorption” value [1, 6] was 4.532%, the “% percentage of mass change, Sorption” value [1, 6] was 4.415% and the “% percentage of mass change, Desorption” value [1, 7] was 4.627%. The “% percentage of mass change, Sorption” value [1, 7] was 4.529%, the “% percentage of mass change, Desorption” value [1, 8] was 4.787% and the “% percentage of mass change, Sorption” value [1, 8] was 4.715%. For the same compound, the “% percentage of mass change, Desorption” value [1, 9] was 4.947%, the “% percentage of mass change, Sorption” value [1, 9] was 4.947% and the “% percentage of mass change, Desorption” value [1, 10] was −0.019%. The “% percentage of mass change, Sorption” value [1, 10] was −0.007%, the “% percentage of mass change, Desorption” value [1, 11] was 0.124% and the “% percentage of mass change, Sorption” value [1, 11] was 0.070%. For the same compound, the “% percentage of mass change, Desorption” value [1, 12] was 0.220%, the “% percentage of mass change, Sorption” value [1, 12] was 0.153% and the “% percentage of mass change, Desorption” value [1, 13] was 3.962%. For the same compound, the “% percentage of mass change, Sorption” value [1, 13] was 3.900%, the “% percentage of mass change, Desorption” value [1, 14] was 4.112% and the “% percentage of mass change, Sorption” value [1, 14] was 4.030%. For the same compound, the “exposure AUC and maximum plasma concentration Cmax compared with the free base” value ([2]; 10 mg/kg) was “superior”, the AUC(0-t) ([2]; male, rat, po, p.o. 10 mg/kg, plasma, vehicle 0.5% HPMC, read-out: Area under curve AUC0-t) was 16800 ng·h/mL and the MRT inf ([2]; male, rat, po, p.o. 10 mg/kg, plasma, vehicle 0.5% HPMC, read-out: Average residence time MRT0-∞) was 4.4 h. For the same compound, the half-life ([2]; male, rat, po, p.o. 10 mg/kg, plasma, vehicle 0.5% HPMC, read-out: Half life t1/2 (converted)) was 2.6 h, the Tmax ([2]; male, rat, po, p.o. 10 mg/kg, plasma, vehicle 0.5% HPMC, read-out: Peak time tmax) was 1 h and the Cmax ([2]; male, rat, po, p.o. 10 mg/kg, plasma, vehicle 0.5% HPMC, read-out: Plasma concentration Cmax) was 2470 ng/mL.

From patent US20240376108A1, “SALT AND CRYSTAL FORM OF PYRAZOLE-CONTAINING POLYCYCLIC DERIVATIVE, AND PREPARATION METHOD THEREFOR AND USE THEREOF” (Shanghai Hansoh Biomedical Co., Ltd., priority 2021, published 2024)
